Data from PMC7793531 (International Journal of Molecular Sciences, 2020).
Starred links: 1 amine or outer side, 2 acyl side, 3 side chain; linkers in the order of their positions; H or OH if unused. Non-standard residues stand in square brackets, D forms with d. Residues, ends and D or L forms follow the SMILES beside them. Groups on a side chain read outwards from the residue. ξ: configuration not given here. *: point of attachment. Oic(3aξ,7aξ) = O=C(O)[C@@H]1CC2CCCCC2N1; X1 = N=C(N)NCCCC[C@H](N)CN*; Dab = NCC[C@H](N)C(=O)O; CO = O=C([*:1])[*:2]

Key:
[1] = In vitro enzymatic stability in human blood serum (LC-SWATH-MS); assay type: in vitro ADME; conditions: human blood serum (pooled from four healthy persons), 37 °C, after 96 h, read-out: compound still intact
Protocol: Rapid renal clearance and enzymatic degradation are classified as most important disadvantages of peptides as drugs. Covalent linkage to plasma proteins or chemical modifications, including amide bond modifications, might improve their half-lives. We performed proteolytic stability studies in human blood serum to investigate whether the introduction of urea bonds affected the half-lives of compounds from each of synthesized group of hybrids. Compounds 3, 6 and 7 were incubated with human serum at 37 °C. Samples were taken at different time intervals and analyzed using LC-SWATH-MS [88, 89, 90]. […] Hybrids 6 and 7 were stable toward enzymatic degradation, with 50% of each compound still being intact after 96 h (Figure 5). […] Overall, it can be concluded that the substitution of an amide bond with a urea bond has a positive effect on the proteolytic stability of the examined inhibitors.
The study was conducted in full accordance with ethical principles in accordance with the ICH E6 (R2) Guideline for Good Clinical Practice and the Code of Good Customs in Science developed by the Polish Academy of Sciences. Signed consent for using serum was obtained from volunteers. The Rector’s Commission for Ethics of Scientific Research with Human Participation, University of Warsaw, Warsaw, Poland gave the ethical approval (approval number 51/2020). Human blood from four healthy persons was directly drawn into evacuated tubes and left undisturbed at room temperature for 1 h to clot. Tubes were centrifuged at 2500× g for 10 min to prevent possible platelet activation. Serum was pipetted out of the blood collection tubes, pooled and collected in microtubes.
A degradation assay was adapted from a method described previously. Human blood serum was preactivated in Eppendorf ThermoMixer® Comfort (Hamburg, Germany) at 37 °C for 20 min (350 rpm). Next, 20 μL of aqueous urea–peptide hybrid stock solution was added to give ∼750 μg/mL final compound concentration, and incubation was continued. At selected time intervals, 50 μL of the mixture was collected and quenched by adding 200 μL of ACN:H2O:FA mixture (89:10:1, v:v:v). The obtained suspension was vortexed for 1 min (3000 min^−1) and centrifuged for 10 min in 4 °C (11,000× g). 100 μL of supernatant was collected and lyophilized. The samples reconstituted in 1 mL of 10 mM ammonium formate with 0.1% FA were subjected to LC-MS. Relative concentration at time intervals was calculated using peak area of either individual or most intense fragment of compound of interest. Analyst software version 1.7.1 was used for data acquisition, Peak View 2.2 and MultiQuant 2.1 (Sciex, ON) were used for data processing. Detailed analytical data can be found in Supplementary Materials (Figures S17–S45). […]

[2] = molecular target: T1, VEGF-A165/NRP-2 complex (Homo sapiens, UniProt O60462); test: Competitive ELISA-like assay, VEGF-A165/NRP-2 complex formation; assay type: binding; conditions: tested 0.1–10 µM
T1 construct: purchased R&D Systems
T1 sequence (O60462 23-864 limits assumed): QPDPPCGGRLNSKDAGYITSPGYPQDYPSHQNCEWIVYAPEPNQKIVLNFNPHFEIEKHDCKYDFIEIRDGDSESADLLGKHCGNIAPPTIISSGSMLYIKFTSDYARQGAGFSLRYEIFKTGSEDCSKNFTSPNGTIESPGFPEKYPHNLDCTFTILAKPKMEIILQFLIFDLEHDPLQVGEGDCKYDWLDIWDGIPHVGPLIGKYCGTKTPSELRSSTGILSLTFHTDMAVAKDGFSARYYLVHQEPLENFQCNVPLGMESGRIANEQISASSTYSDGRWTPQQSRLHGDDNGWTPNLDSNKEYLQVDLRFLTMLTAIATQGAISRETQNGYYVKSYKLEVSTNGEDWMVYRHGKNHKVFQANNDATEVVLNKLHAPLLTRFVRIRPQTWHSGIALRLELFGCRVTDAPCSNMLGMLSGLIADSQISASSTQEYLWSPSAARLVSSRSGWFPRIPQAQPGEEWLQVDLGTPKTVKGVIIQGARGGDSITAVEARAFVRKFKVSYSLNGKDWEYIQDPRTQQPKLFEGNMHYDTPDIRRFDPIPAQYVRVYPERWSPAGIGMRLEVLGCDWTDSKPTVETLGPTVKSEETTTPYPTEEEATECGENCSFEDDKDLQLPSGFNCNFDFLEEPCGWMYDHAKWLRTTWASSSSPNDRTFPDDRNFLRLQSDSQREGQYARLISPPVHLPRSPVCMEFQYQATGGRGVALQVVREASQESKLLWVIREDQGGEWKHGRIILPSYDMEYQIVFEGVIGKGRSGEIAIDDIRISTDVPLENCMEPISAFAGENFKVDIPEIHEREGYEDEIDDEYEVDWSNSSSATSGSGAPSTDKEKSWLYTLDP
Description: Amino acid sequence homology for primary structures of NRP-1 and NRP-2 is 44% [81, 82]. Structural studies have shown that both receptors bind VEGF-A165 using a conserved binding pocket core, formed by the b1 subdomain loops. VEGF-A165 interacts also with VEGF-R1 and R2 receptors by different fragments encoded by exons 1–5 [84, 85]. Affinity studies were done using modified ELISA-like assay, performed in the same manner as affinity tests for NRP-1 after optimization of method for individual protein. […] However, this value is more than two times higher compared to VEGF-A165/NRP-1 complex inhibition.
This method was previously described for NRP-1 [44, 45, 46]. […] Next, 100 µL chemiluminescent substrate was added, and luminescence was quantified using Tecan Infinite F200Pro microplate reader (Männedorf, Switzerland). […] Percentages of inhibition were calculated by the following formula:100% − [[(S − N)/(P − N)]∙100%](1) where S is the signal intensity measured in wells with urea–peptide hybrid. The IC50 of each urea–peptide hybrid was calculated using the nonlinear regression function with GraphPad Prism Version-5.01 (GraphPad Software, San Diego, CA, USA). […]

remaining at 96 h [1]: 50%
IC50 [2]: 480 nM
SMILES: N=C(N)NCCCC[C@H](N)CNC(=O)NCC[C@H](N)C(=O)N[C@@H](CCN)C(=O)N1C2CCCCC2C[C@H]1C(=O)N[C@@H](CCCNC(=N)N)C(=O)O (stereo partly drawn) [Compound 6, H-Dab(hArg^U)Dab-Oic-Arg-OH] (H-[Dab]([CO-X1])[Dab][Oic(3aξ,7aξ)]R-OH)
